Reference: patent US20030176456A1, “Methods for reducing alcohol cravings in chronic alcoholics” (priority 2001, published 2003)

Assays:
rats = assay: Reversal of suppression produced by chlordiazepoxide; assay type: in vivo, rat; conditions: 7.5 & 15 mg/kg; preliminary studies
[1] = Rowlett et al., submitted; cited from earlier work
GABAA α2β3γ2 receptors = assay: Xenopus oocyte expression assay, modulation of GABA current; assay type: cell-based, rat; conditions: saturating 1-10 μM modulator with EC50 GABA (50 μM); mean±S.D.
[2] = molecular target: wild type BDZ receptors (cerebral cortical membranes); assay: Radioligand displacement at cerebral cortical membranes; assay type: binding; conditions: read-out: Displacement of [3H] flunitrazepam in vitro, IC50; rat cerebral cortical membranes; mean of three or more experiments
Method: [^3H] […] In brief, rats were sacrificed by decapitation, and the cerebral cortex removed. […] Tissue was resuspended in an equal volume of buffer and recentrifuged. This procedure was repeated a total of three times and the tissue resuspended in 50 volumes of buffer. Incubations (1 mL) consisted of tissue (0.3 mL), drug solution (0.1 mL), buffer (0.5 mL) and radioligand (0.1 mL). […] The IC50 values were estimated using Hill plots.

squirrel monkeys = conditions: Rowlett et al., unpublished observation; cited from earlier work
GABAA α5β3γ2 receptors = molecular target: T1, GABAA α5β3γ2 receptors (Rattus norvegicus, UniProt P18508+P19969); assay: Xenopus oocyte expression assay, modulation of GABA current; assay type: cell-based; conditions: saturating 1-10 μM modulator with EC50 GABA (30 μM); mean±S.D.
T1 construct: expressed in transfected cells; host or cells: Xenopus laevis oocytes injected with cRNA

HAD-1 rats [3] = assay type: in vivo, rat
Method: (§1) Rats were placed in the middle of the automated plus maze (Acuscan Electronics, Columbus, Ohio, USA) with two walled and open arms under dim illumination (for details see June et al., 1998b).
(§2) βCCt (5-60 mg/kg i.p.) and chlordiazepoxide (2.5, 5, 10 mg/kg i.p.) were administered 15 and 30 min, respectively, prior to being placed in the plus maze or open field. EtOH (1.25 g/kg) was given 5 min prior to placing the rats in the open field. When βCCt was given in combination with either chlordiazepoxide or EtOH, it was given 10 min prior to chlordiazepoxide and EtOH. As noted above, βCCt was administered in Tween-20 solution, while all other drugs were mixed in sterile saline. Animals were tested between 9am-3 pm.
(§3) HAD-1 asnd P rats were randomly assigned to each of the […] drug treatment groups (Veh, 5, 15, 30, 60 mg/kg). A between group ANOVA with drug treatment as the independent factor was conducted for HAD-1 (n=8-12 per treatment group) [total N=42] and P (n=7-12 per treatment group) [total N=42] rats on the plus-maze test.

P rats [4] = assay type: in vivo, rat
Method: as §1, §2, §3

HAD-1 rats [5] = assay type: in vivo, rat; conditions: i.p.; chlordiazepoxide 10 mg/kg, βCCt 15 mg/kg; 10 min open field
Method: (§4) Ambulatory count in the open field was recorded individually for 10 min in a plexiglas chamber (42 cm×42 cm 30 cm) using a Digiscan activity monitoring system (Acuscan Electronics, Columbus, Ohio, USA) (for details of the monitoring system see June et al., 1998d).
(§5) βCCt (15 mg/kg i.p.) and chlordiazepoxide (10 mg/kg i.p.) were administered 15 and 30 min, respectively, prior to the rats being placed in the open field. EtOH (1.25 g/kg) was given 5 min prior to placing the rats in the open field. When βCCt was given in combination with either chlordiazepoxide or EtOH, it was given 10 min prior to chlordiazepoxide and EtOH. As noted above, βCCt was administered in Tween-20 solution, while all other drugs were mixed in sterile saline. Animals were tested between 9 am-3 pm.
(§6) Ambulatory count in the open field was recorded individually for 10 min in a plexiglas chamber (42 cm×42 cm 30 cm) using a Digiscan activity monitoring system (Acuscan Electronics, Columbus, Ohio, USA) (for details of the monitoring system see June et al., 1998b).
as §2

P rats [6] = assay type: in vivo, rat; conditions: i.p.; chlordiazepoxide 10 mg/kg, βCCt 15 mg/kg; 10 min open field
Method: as §4, §5, §6, §2

α2 GABAA receptor = molecular target: T2, α2 GABAA receptor (Homo sapiens, UniProt P18507+P47869); assay: Modulation of GABA induced currents in HEK cells; assay type: cell-based
T2 construct: expressed in transfected cells; host or cells: HEK cells
T2 sequence (P47869 29-451): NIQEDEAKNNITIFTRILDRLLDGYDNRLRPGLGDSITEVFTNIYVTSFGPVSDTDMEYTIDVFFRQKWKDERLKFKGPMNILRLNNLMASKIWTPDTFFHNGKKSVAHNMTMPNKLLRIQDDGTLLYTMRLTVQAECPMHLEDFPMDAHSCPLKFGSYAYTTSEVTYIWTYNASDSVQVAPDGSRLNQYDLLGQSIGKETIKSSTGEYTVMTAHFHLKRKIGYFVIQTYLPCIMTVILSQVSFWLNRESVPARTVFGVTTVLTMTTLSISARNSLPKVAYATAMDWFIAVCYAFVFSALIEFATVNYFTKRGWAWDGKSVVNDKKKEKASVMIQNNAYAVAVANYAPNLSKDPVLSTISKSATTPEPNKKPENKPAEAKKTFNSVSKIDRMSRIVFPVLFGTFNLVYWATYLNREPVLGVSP
T2 sequence (P28472 26-473 partner): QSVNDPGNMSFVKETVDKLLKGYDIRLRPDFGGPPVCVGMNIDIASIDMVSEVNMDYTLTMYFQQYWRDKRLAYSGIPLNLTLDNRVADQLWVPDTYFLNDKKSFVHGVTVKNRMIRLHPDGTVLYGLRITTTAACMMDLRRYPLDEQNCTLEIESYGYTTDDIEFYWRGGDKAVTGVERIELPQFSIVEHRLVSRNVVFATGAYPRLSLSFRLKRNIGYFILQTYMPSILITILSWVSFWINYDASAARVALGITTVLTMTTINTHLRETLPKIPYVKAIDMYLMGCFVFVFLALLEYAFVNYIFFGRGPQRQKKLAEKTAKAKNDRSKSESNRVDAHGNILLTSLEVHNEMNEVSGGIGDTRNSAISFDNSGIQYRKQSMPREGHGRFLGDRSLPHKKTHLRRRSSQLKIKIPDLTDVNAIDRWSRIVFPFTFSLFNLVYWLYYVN
T2 sequence (P18507 40-475): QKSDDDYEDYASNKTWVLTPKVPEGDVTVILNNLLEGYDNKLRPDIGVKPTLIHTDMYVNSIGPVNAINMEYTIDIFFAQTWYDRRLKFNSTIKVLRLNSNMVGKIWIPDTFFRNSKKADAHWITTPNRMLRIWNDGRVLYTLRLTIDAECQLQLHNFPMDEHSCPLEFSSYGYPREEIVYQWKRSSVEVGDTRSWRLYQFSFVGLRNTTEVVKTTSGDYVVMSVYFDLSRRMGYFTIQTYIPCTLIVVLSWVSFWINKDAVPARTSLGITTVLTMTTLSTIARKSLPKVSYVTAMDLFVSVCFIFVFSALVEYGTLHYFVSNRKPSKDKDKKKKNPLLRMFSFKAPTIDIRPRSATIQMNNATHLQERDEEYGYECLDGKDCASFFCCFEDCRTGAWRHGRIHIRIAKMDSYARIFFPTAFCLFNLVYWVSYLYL
Method: (§7) In this study, we assessed the functional capacity of βCCt to competitively antagonize the anxiolytic versus the sedative properties of the prototypical BDZ, chlordiazepoxide.
(§8) FIGS. 21-26 represent the molecular biology data in α1-α6 GABAA receptors. […] In other words, βCCt behaves like chlordiazepoxide at the anxiety receptors. It is important to note that these effects occur at 50-100 μM, and would most likely be observed at moderate doses.

α3 GABAA receptor = molecular target: T3, α3 GABAA receptor (Homo sapiens, UniProt P18507+P34903); assay: Modulation of GABA induced currents in HEK cells; assay type: cell-based
T3 construct: expressed in transfected cells; host or cells: HEK cells
T3 sequence (P34903 29-492): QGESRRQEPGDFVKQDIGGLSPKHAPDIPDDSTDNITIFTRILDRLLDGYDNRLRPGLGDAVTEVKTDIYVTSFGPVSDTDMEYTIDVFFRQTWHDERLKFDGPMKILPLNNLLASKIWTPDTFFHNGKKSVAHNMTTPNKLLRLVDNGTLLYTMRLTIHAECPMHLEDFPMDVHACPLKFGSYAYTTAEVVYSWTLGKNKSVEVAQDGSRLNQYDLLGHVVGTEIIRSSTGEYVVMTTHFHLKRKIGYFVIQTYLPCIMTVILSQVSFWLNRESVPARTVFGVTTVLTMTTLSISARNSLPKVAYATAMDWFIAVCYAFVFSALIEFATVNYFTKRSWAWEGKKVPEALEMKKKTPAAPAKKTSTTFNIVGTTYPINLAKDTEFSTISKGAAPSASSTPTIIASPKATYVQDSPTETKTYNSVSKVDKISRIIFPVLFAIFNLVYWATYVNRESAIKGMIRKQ
T3 sequence (P28472 26-473 partner): as the sequence (P28472 26-473 partner) above
T3 sequence (P18507 40-475): as the sequence (P18507 40-475) above
Method: as §7, §8

α5 GABAA receptor = molecular target: T4, α5 GABAA receptor (Homo sapiens, UniProt P18507+P31644); assay: Modulation of GABA induced currents in HEK cells; assay type: cell-based; conditions: 0.1 to 100 μM
T4 construct: expressed in transfected cells; host or cells: HEK cells
T4 sequence (P31644 32-462): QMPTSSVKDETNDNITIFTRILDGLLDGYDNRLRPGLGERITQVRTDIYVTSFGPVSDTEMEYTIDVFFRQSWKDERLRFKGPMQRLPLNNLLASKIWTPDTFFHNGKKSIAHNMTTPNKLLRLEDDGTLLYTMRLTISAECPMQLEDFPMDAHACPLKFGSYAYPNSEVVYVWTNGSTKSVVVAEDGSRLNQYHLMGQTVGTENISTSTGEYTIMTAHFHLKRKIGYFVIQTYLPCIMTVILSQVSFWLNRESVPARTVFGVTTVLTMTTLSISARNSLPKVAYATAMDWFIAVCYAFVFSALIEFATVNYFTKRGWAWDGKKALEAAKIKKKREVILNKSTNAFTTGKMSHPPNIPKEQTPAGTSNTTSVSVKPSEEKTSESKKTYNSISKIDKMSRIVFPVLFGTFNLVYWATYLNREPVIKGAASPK
T4 sequence (P28472 26-473 partner): as the sequence (P28472 26-473 partner) above
T4 sequence (P18507 40-475): as the sequence (P18507 40-475) above
Method: as §7, §8

α1 GABAA receptor = molecular target: T5, α1 GABAA receptor (Homo sapiens, UniProt P14867+P18507); assay: Modulation of GABA induced currents in HEK cells; assay type: cell-based; conditions: 0.1 to 100 μM
T5 construct: expressed in transfected cells; host or cells: HEK cells
T5 sequence (P14867 28-456): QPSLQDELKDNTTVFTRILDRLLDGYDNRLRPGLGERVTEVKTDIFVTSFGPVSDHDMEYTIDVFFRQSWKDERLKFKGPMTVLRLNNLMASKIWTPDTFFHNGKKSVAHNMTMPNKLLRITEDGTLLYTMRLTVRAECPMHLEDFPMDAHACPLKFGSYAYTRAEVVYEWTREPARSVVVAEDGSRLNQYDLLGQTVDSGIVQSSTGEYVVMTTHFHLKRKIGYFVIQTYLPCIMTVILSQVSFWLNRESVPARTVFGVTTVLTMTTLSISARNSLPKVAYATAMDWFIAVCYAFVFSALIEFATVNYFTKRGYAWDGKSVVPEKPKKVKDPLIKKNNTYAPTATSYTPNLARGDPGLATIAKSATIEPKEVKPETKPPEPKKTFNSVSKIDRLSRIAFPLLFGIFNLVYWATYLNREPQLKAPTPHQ
T5 sequence (P28472 26-473 partner): as the sequence (P28472 26-473 partner) above
T5 sequence (P18507 40-475): as the sequence (P18507 40-475) above
Method: as §7, §8

α4 GABAA receptor = molecular target: T6, α4 GABAA receptor (Homo sapiens, UniProt P18507+P48169); assay: Modulation of GABA induced currents in HEK cells; assay type: cell-based; conditions: 0.1 to 100 μM
T6 construct: expressed in transfected cells; host or cells: HEK cells
T6 sequence (P48169 36-554): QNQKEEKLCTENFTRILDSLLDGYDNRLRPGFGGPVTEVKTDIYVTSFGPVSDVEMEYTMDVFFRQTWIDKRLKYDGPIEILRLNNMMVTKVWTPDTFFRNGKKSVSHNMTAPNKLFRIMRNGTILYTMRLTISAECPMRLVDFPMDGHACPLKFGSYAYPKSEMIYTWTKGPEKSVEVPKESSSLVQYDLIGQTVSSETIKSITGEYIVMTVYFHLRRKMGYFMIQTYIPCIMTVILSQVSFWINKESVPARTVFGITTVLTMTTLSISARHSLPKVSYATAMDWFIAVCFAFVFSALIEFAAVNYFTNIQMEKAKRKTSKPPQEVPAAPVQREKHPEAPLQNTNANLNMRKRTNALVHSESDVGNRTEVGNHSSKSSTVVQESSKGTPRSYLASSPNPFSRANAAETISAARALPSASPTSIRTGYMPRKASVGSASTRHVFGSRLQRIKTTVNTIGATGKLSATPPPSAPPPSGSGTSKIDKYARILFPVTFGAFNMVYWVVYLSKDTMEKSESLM
T6 sequence (P28472 26-473 partner): as the sequence (P28472 26-473 partner) above
T6 sequence (P18507 40-475): as the sequence (P18507 40-475) above
Method: as §7, §8

α6 GABAA receptor = molecular target: T7, α6 GABAA receptor (Homo sapiens, UniProt P18507+Q16445); assay: Modulation of GABA induced currents in HEK cells; assay type: cell-based; conditions: 0.1 to 100 μM
T7 construct: expressed in transfected cells; host or cells: HEK cells
T7 sequence (Q16445 20-453): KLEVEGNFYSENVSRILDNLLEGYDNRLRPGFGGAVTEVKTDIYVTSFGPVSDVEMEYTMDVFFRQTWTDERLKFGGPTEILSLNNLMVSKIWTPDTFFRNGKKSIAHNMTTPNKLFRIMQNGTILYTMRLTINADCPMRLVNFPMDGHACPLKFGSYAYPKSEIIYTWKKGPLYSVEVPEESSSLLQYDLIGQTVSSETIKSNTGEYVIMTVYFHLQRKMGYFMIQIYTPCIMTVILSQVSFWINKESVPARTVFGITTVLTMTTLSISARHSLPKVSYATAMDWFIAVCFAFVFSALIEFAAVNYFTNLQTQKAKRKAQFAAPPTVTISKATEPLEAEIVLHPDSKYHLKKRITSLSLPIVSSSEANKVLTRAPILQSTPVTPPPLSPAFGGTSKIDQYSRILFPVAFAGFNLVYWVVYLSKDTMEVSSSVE
T7 sequence (P28472 26-473 partner): as the sequence (P28472 26-473 partner) above
T7 sequence (P18507 40-475): as the sequence (P18507 40-475) above
Method: as §7, §8

For `CCCOc1cc2c(cn1)[nH]c1ccccc12.Cl` [3-PBC, 3-Propoxy-β-carboline hydrochloride], the “reversal of suppression produced by chlordiazepoxide (2.5-10 mg/kg)” value (rats) is given as “reversed the suppression produced by chlordiazepoxide”, the “antagonism in zolpidem discrimination” value [1] is given as “surmountable antagonism” and the “% of GABA response, α2” value (GABAA α2β3γ2 receptors) is given as 116±7%. For the same compound, the IC50 [2] was 11 nM and the “activity in observational studies vs saline controls” value (squirrel monkeys) was “inactive”.

In the case of `CC(C)(C)OC(=O)c1cc2c(cn1)[nH]c1ccccc12` [βCCt, β-carboline-3-carboxylate t-butyl ester], the “% of GABA response, α5” value (GABAA α5β3γ2 receptors) is reported as 88±7%, the “sedation in the plus maze” value (HAD-1 rats [3]; 60 mg/kg i.p., data not shown) is reported as “marked sedative profile” and the “effect on anxiolytic activity produced by chlordiazepoxide (5.0 mg/kg)” value (HAD-1 rats [3]; 5, 15 mg/kg i.p.) is reported as “neither dose of βCCt (5, 15 mg/kg, i.p.) altered the anxiolytic activity”. For the same compound, the “number of closed arm entries” value (HAD-1 rats [3]; i.p.) was “without effect”, the “effect on anxiolytic activity produced by chlordiazepoxide (5.0 mg/kg)” value (P rats [4]; 5, 15 mg/kg i.p.) was “neither dose of βCCt (5, 15 mg/kg, i.p.) altered the anxiolytic activity” and the “number of closed arm entries” value (P rats [4]; i.p. 5-60 mg/kg) was “significant reduction in performance only with the 60 mg/kg dose”. For the same compound, the “locomotor activity, drug given alone” value (HAD-1 rats [5]) was “did not produce any intrinsic effects”, the “locomotor activity, drug given alone” value (P rats [6]) was “did not produce any intrinsic effects” and the “activity at the α2 receptor in HEK cells” value (α2 GABAA receptor; 0.1 to 100 μM) was “Strong agonist activity”. For the same compound, the “intrinsic activity in HEK cells, α2” value (α2 GABAA receptor; 0.1 to 100 μM) was “Intrinsic activity is seen”, the “concentration at which agonist-like effects occur, α2” value (α2 GABAA receptor; HEK cells) was 50 to 100 µM and the “activity at the α3 receptor in HEK cells” value (α3 GABAA receptor; 0.1 to 100 μM) was “Strong agonist activity”. For the same compound, the “concentration at which agonist-like effects occur, α3” value (α3 GABAA receptor; HEK cells) was 50 to 100 µM, the “activity at the α5 receptor in HEK cells” value (α5 GABAA receptor) was “Agonist and inverse-agonist activity” and the “intrinsic activity in HEK cells, α5” value (α5 GABAA receptor) was “Intrinsic activity is seen”. The “activity at the α1 receptor in HEK cells” value (α1 GABAA receptor) was “Agonist and inverse-agonist activity”, the “intrinsic activity in HEK cells, α1” value (α1 GABAA receptor) was “Intrinsic activity is seen” and the “activity at the α4 receptor in HEK cells” value (α4 GABAA receptor) was “Moderate agonist activity”. For the same compound, the “intrinsic activity in HEK cells, α4” value (α4 GABAA receptor) was “Intrinsic activity is seen”, the “activity at the α6 receptor in HEK cells” value (α6 GABAA receptor) was “Minimal agonist activity” and the “intrinsic activity in HEK cells, α6” value (α6 GABAA receptor) was “Intrinsic activity is seen”.
